Experiments:
Assay type in all cases: biochemical
BTK C481S = molecular target: T1, BTK C481S (Homo sapiens, UniProt Q06187, C481S); assay: In vitro kinase activity assay (mobility shift assay), BTK C481S; details: ATP 90 μM, reaction time 30 min
T1 construct: purchased Carna 08-547
Outline: (§1)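 Mobility-shift kinase assay in 20 mM Hepes pH 7.5, 10 mM MgCl2, EGTA, Brij35, BSA, Na3VO4, DTT, 1% DMSO. Compound was preincubated with kinase 10 min, then ATP and substrate were added for 30-240 min at room temperature. Ten 3-fold dilutions from 1000 nM final; IC50 from fitted conversion-rate inhibition.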

SRC = molecular target: T2, SRC (Homo sapiens, UniProt P12931); assay: In vitro kinase activity assay (mobility shift assay), SRC; details: ATP 19 μM, reaction time 30 min
T2 construct: purchased Carna 08-173
Experimental: The IC50 (half inhibitory concentration) values of the compounds were used as an indicator to evaluate the inhibitory effect of the compound on RET wild-type, RET mutant, TRKa, SRC, BTK and/or mutated BTK kinase.
Using the method of Mobility shift assay, the compounds were tested for inhibitory activity against the following kinases: RET wild type, RET mutant, TRKa, SRC, BTK and/or mutated BTK. The initial concentration of the test compound was 1000 nM, 3-fold dilution, 10 concentrations, detected in a well for each concentration.
20 mM hydroxyethylpiperazineethanesulfonic acid (Hepes) (pH 7.5) buffer, 10 mM MgCl2, 1 mM ethylene glycol bis(aminoethyl ether)tetraacetic acid (EGTA), 0.02% polyoxyethylene lauryl ether (Brij35), 0.02 mg/ml […] (BSA), 0.1 mM Na3VO4, 2 mM dithiothreitol (DTT), 1% DMSO.
The test compounds were dissolved in 100% dimethyl sulfoxide (DMSO) system, and prepared as 10 mM for use, and stored in a nitrogen cabinet away from light.
• (1) Preparing 1× kinase reaction buffer. • (2) Preparation of compound concentration gradient: the initial concentration of the compounds was 1000 nM, which was diluted as 100-fold final concentration of solution in 100% dimethyl sulfoxide (DMSO) in a 384-well plate. The compound was accurately 3-fold diluted with the kinase buffer solution, 10 concentrations in total, and the final concentration was 0.0508 nM. The 100-fold final concentration of solution in 100% dimethyl sulfoxide (DMSO) was obtained by dilution in 384 source plate. The liquid separator Echo 550 was used to transfer 250 nl of 100-fold final concentration of compound to the target 384 well plate. 250 nl of DMSO was added to the positive and negative control wells. • (3) 2.5-fold final concentration of kinase solution was prepared by the 1× kinase buffer. • (4) 10 4, of 2.5-fold final concentration of kinase solution was added to the compound well and the positive control well, respectively; 10 4, of 1× kinase buffer was added to the negative control well. • (5) After centrifuging at 1000 rpm for 30 second, the reaction plate was shaken and mixed, followed by incubation at room temperature for 10 min. • (6) a mixed solution of 25/15-fold final concentration of adenosine triphosphate (ATP) and kinase substrate was prepared by 1× kinase buffer. • (7) The mixed solution (15 μL) of 25/15-fold final concentration of adenosine triphosphate (ATP) and substrate was added to initiate the reaction. • (8) 384-well plate was centrifuged at 1000 rpm for 30 second, shaken and mixed well, and then incubated at room temperature for 30-240 min. • (9) After stopping the kinase reaction, the plate was centrifugated at 1000 rpm for 30 second, shaken and mixed well. • (10)The conversion rate was read with Caliper EZ Reader.
wherein Conversion%_sample is the conversion rate reading of the sample; Conversion%_min: the mean value of negative control wells, representing the conversion rate reading of wells without enzymes; Conversion%_max: the mean value of positive control wells, representing the conversion rate reading of wells without compound inhibition.
The log value of concentration was taken as the X axis, and the percentage inhibition rate was taken as the Y axis. Graphpad 6.0 analysis software was used to fit the dose-response curve, so as to obtain the IC50 value of each compound on the enzyme activity

TRKa = molecular target: T3, TRKa (Homo sapiens, UniProt P04629); assay: In vitro kinase activity assay (mobility shift assay), TRKa; details: ATP 47.8 μM, reaction time 30 min
T3 construct: purchased Carna 08-186
Outline: as §1

RET wt = molecular target: T4, RET wt (Homo sapiens, UniProt P07949); assay: In vitro kinase activity assay (mobility shift assay), RET wild type; details: ATP 16 μM, reaction time 60 min
T4 construct: purchased Carna 08-159
Outline: as §1

RET G810R = molecular target: T5, RET G810R (Homo sapiens, UniProt P07949, G810R); assay: In vitro kinase activity assay (mobility shift assay), RET G810R; details: ATP 201 μM, reaction time 4 h
T5 construct: purchased Proqinase 1724-0000-1
Outline: as §1

BTK = molecular target: T6, BTK (Homo sapiens, UniProt Q06187); assay: In vitro kinase activity assay (mobility shift assay), BTK; details: ATP 71 μM, reaction time 30 min
T6 construct: purchased Carna 08-180
Outline: as §1

RET V804M = molecular target: T7, RET V804M (Homo sapiens, UniProt P07949, V804M); assay: In vitro kinase activity assay (mobility shift assay), RET V804M; details: ATP 5.4 μM, reaction time 60 min
T7 construct: purchased signalchem R02-12GG
Outline: as §1

T4 sequence (P07949 29-1114): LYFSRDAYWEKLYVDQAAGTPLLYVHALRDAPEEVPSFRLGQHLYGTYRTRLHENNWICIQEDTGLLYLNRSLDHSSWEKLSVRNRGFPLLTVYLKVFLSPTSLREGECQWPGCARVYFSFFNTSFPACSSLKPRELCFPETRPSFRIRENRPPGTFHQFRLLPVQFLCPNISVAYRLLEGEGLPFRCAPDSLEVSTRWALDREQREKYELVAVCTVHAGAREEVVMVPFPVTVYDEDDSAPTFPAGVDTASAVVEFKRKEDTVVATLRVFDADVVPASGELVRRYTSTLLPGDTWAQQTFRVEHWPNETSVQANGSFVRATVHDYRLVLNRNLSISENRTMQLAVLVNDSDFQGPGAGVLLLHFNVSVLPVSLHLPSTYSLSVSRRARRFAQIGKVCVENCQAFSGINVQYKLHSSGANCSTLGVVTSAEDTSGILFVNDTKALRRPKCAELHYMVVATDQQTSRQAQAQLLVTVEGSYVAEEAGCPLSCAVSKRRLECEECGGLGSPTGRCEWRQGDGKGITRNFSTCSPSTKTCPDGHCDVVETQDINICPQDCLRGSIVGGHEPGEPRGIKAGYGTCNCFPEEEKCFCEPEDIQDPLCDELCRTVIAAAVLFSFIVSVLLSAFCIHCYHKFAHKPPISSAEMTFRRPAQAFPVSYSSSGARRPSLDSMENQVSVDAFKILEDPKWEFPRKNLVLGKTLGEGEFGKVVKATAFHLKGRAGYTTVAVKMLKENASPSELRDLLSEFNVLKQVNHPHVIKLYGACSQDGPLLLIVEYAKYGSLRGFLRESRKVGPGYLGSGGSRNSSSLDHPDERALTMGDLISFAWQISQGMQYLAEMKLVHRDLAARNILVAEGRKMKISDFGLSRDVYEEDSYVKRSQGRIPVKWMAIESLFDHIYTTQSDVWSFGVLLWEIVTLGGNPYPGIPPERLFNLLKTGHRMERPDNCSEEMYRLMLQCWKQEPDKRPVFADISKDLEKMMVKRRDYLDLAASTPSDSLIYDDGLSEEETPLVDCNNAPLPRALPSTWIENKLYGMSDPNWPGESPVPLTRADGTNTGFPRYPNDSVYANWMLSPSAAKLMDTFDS
T7 sequence (P07949 29-1114 V804M): as the sequence (P07949 29-1114) above, with V776M counted along it
T6 sequence (Q06187 whole entry): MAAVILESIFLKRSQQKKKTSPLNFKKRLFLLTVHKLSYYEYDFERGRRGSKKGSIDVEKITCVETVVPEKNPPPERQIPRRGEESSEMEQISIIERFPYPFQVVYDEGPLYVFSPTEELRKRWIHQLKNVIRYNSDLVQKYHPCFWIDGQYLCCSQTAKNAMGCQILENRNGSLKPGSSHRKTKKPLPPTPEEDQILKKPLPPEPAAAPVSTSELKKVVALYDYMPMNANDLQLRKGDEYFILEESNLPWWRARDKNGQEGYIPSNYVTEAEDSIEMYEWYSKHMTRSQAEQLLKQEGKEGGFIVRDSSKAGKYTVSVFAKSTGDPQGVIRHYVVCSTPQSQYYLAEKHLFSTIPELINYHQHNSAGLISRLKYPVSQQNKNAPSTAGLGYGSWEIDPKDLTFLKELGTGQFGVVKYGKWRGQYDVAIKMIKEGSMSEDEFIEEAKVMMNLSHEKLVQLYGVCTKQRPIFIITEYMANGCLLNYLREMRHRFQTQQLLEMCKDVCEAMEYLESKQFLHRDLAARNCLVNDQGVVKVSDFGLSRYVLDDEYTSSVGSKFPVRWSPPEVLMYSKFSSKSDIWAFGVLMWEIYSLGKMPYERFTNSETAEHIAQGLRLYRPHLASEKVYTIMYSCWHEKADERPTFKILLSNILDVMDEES
T1 sequence (Q06187 whole entry C481S): as the sequence (Q06187 whole entry) above, with C481S counted along it
T2 sequence (P12931 whole entry): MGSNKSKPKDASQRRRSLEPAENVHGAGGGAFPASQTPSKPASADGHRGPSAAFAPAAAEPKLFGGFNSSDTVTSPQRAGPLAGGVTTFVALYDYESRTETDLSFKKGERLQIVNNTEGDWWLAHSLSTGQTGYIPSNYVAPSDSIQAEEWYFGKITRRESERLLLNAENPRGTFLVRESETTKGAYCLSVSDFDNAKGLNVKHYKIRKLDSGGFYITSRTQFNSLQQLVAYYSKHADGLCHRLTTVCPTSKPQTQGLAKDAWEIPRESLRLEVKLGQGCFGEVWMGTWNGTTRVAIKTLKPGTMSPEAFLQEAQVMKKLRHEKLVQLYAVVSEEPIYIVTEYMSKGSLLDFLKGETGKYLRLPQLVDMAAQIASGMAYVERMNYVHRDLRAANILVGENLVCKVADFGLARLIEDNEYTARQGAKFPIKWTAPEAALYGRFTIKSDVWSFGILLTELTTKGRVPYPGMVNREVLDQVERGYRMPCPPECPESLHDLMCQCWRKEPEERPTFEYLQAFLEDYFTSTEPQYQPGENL
T3 sequence (P04629 33-796): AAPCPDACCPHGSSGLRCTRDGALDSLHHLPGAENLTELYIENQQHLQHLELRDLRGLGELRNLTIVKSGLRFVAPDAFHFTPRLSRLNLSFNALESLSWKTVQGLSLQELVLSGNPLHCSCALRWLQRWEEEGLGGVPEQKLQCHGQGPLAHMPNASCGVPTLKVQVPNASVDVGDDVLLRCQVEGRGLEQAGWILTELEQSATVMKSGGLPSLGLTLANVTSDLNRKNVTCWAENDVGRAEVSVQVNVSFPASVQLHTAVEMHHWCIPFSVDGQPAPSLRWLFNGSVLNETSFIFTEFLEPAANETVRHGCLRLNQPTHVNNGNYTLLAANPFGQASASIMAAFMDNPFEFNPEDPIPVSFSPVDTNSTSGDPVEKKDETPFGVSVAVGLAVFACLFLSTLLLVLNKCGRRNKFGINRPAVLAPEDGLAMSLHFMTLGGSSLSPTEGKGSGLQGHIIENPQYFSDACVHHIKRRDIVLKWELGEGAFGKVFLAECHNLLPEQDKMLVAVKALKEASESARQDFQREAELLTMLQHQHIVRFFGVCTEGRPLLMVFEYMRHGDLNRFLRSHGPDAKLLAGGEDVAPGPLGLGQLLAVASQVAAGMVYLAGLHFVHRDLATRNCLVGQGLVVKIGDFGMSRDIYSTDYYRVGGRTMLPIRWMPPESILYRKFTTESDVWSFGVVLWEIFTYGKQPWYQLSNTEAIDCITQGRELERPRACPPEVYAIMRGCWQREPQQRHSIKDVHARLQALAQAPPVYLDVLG
T5 sequence (P07949 29-1114 G810R): as the sequence (P07949 29-1114) above, with G782R counted along it

## C[C@H]1CNC(=O)c2cnn3cc(-c4ccccc4Cl)c(nc23)NCc2cc(F)cnc2O1 [Compound 4, (S, 1^3E, 1^4E)-1^6-(2-chlorophenyl)-4^5-fluoro-6-methyl-5-oxa-2,8-diaza-1(5,3)-pyrazolo[1,5-a]pyrimidina-4(3,2)-pyridinacyclononaphan-9-one]
BTK C481S
  IC50: 9.84 nM
SRC
  IC50: 0.096 nM
TRKa
  IC50: 294 nM
RET wt
  IC50: 2.2 nM
RET G810R
  IC50: 21 nM
BTK
  IC50: 3.39 nM
RET V804M
  IC50: 161 nM

Reference: patent US20230219978A1, “COMPOUND HAVING MACROCYCLIC STRUCTURE AND USE THEREOF” (SCINNOHUB PHARMACEUTICAL CO., LTD, priority 2020, published 2023)
